Usually pIC50 stands for the negative decadic logarithm of the IC50, by convention in mol/L. Lower therefore signals a high IC50.

The target in this assay is T1, Bub1 (Homo sapiens, UniProt O43683).
T1 construct: full-length Bub1 with an N-terminal GFP tag (GFP-Bub1), purified from HEK-293 cells on beads
The assay is described as follows: in vitro kinase assay with purified GFP-Bub1 and H2A, H2ApT120 immunoblot, […] ATP. The format is biochemical. In general terms: Immunoblotting shows a protein as a band on a membrane.

Each structure is given as a SMILES string. pIC50: −log10 of the molar value.

T1 sequence (O43683 whole entry): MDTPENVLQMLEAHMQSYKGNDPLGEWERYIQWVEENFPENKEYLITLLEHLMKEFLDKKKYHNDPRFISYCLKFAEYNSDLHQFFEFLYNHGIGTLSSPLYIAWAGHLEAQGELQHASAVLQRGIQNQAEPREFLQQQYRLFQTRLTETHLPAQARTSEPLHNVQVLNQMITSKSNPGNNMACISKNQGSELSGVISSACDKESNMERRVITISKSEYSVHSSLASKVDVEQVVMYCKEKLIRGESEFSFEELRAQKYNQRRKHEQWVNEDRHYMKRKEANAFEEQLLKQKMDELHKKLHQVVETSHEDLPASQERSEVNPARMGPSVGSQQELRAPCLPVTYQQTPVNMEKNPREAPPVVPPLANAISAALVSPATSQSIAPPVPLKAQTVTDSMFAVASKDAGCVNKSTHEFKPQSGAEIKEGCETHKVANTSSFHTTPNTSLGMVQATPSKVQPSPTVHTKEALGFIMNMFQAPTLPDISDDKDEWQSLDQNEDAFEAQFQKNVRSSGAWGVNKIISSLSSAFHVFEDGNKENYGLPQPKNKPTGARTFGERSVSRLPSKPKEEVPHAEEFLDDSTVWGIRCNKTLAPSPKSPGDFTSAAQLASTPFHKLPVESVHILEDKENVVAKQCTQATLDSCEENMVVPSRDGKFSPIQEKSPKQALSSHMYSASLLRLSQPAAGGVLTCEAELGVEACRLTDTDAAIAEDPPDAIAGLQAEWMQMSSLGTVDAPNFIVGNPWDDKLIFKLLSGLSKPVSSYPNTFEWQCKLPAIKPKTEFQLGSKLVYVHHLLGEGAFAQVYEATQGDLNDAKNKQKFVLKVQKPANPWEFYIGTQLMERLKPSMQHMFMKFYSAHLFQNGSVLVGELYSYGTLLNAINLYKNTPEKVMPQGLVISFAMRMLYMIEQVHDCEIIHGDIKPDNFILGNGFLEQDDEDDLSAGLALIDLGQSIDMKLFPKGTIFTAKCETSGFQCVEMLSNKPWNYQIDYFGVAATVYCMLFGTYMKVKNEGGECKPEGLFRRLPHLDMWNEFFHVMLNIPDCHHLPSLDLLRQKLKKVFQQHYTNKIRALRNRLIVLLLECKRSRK

With `CCOc1cc(F)c(Cn2nc(-c3ncc(OC)c(Nc4ccncc4)n3)c(C)c2C2CC2)c(F)c1` [compound 11, 2-[5-Cyclopropyl-1-(4-ethoxy-2,6-difluorobenzyl)-4-methyl-1H-pyrazol-3-yl]-5-methoxy-N-(pyridine-4-yl)pyrimidin-4-amine], the pIC50 was 6.25.

Compound `CC(C)(C)n1nc(Cc2ccccc2O)c2c(N)ncnc21` [2OH-BNPP1] showed a pIC50 of 6.22.

The values above are taken from article PMC8672067, “Inhibitors of the Bub1 spindle assembly checkpoint kinase: synthesis of BAY-320 and comparison with 2OH-BNPP1” (Royal Society Open Science, 2021).
